Assay: gradient 5% acetonitrile 3 min, to 50% in 2 min, to 85% in 15 min, held 3 min, 100 µL/min
Conditions: column: Zorbax Extend-C18 2.1 x 50 mm; eluents: water / acetonitrile, 0.1% formic acid
Outline: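 Each retention time is based on an adduct peak selected computationally and verified by manual inspection. Measurements used HPLC–quadrupole time-of-flight mass spectrometry in positive and negative ionization mode on mixtures of ~100 pure standards. Chromatography ran on a Zorbax Extend-C18 column (2.1 × 50 mm, 1.8 μm) at 100 μL/min with water and acetonitrile, each containing 0.1% formic acid, and dead and dwell volumes of 40 μL and 900 μL.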

Structure (SMILES)	RP-LC retention time [s]
Cc1ccc(-c2noc(C3CC3)n2)cc1S(=O)(=O)N1CCC(C(=O)Nc2nccs2)CC1	937
O=S(=O)(c1ccc(-c2nnc(C3CC3)o2)o1)N1CCN(c2ccccn2)CC1	632
COc1ccc(N2CC(c3nc(-c4ccccc4)no3)CC2=O)cc1Cl (stereo not given)	973
Cc1ccc(CNC(=O)C2(C)CCN(S(=O)(=O)c3ccc(Br)cc3)CC2)cc1	1030
CCOC(=O)c1noc2ncnc(N(Cc3ccccc3OC)C3CCN(C)CC3)c12	667
CCn1c(C(=O)N2CCN(c3ccccn3)CC2)cc2c(=O)oc3ccccc3c21	637
O=C(Cn1cc(C(=O)C(=O)N2CCOCC2)c2ccccc21)NCc1ccc2c(c1)OCCCO2	704
CCc1nc2c(NC(=O)c3cccs3)cccn2n1	761
O=C(Nc1cnn(-c2ncc(N3CCCC3)cn2)c1)Nc1ccccc1C(F)(F)F	850
CC(C)Cc1ccc(S(=O)(=O)N(CC(=O)N2CCNCC2)CC2CCCO2)cc1 (stereo not given)	703
O=C(O)COC(=O)Cc1ccccc1Nc1c(Cl)cccc1Cl	957
C=CCNc1nc(-c2cccc([N+](=O)[O-])c2)cs1	949
CCOc1ncccc1CNC(=O)Cc1ccsc1	771
CC(C)NC(=O)C1CCN(c2cnn(Cc3ccccc3)c(=O)c2)CC1	689
Cc1ccc(-c2ccc(-n3nc(C)c(S(=O)(=O)NCC(C)C)c3C)nn2)cc1	1160
CCCNC(=O)C1CCCN(c2nc3ncn(CC(=O)Nc4c(C)cc(C)cc4C)c(=O)c3s2)C1 (stereo not given)	728
Cc1cc(C)cc(-c2nc(-c3ccc4c(c3)nnn4CCC(=O)N3CCCC3)no2)c1	1090
COC(=O)c1ccccc1NC(=O)Cn1cccc(-c2nc(-c3ccccc3)no2)c1=O	629
CCn1nc(-c2nc(-c3ccc(Cl)cc3)no2)ccc1=O	1030
CCCCCNC(=O)CN1c2ccc(F)cc2-c2ccccc2S1(=O)=O	986
CC(C)c1ccc(Nc2c(-c3ccc(N(C)C)cc3)nc3ncccn23)cc1	820
COc1ccc(-c2noc(C3CC(=O)N(c4ccc(C)c(C)c4)C3)n2)c(OC)c1 (stereo not given)	932
CCOCCCNC(=O)CN1C(=O)CCn2nc(-c3cn(C)c4ccccc34)cc21	714

Structure (SMILES)	RP-LC retention time [s]
CCC(C)c1ccc(NC(=O)C2CCN(C(=O)C(C)(C)C)CC2)cc1 (stereo not given)	983
Cc1nn(Cc2ccc(C(=O)NCC3CC3)cc2)c(C)c1S(=O)(=O)N1CCC(C)CC1	888
COc1ccc(C2(C(=O)N3CC(c4ncc(C)n4Cc4cccnc4)C3)CC2)cc1	593
Cc1ccc2oc(-c3noc(C(=O)NC(C)Cc4ccco4)n3)c(C)c2c1 (stereo not given)	1180
Cc1nn(C)c(C)c1CCN(C)C(=O)C1Cn2cccc2C(=O)N1C (stereo not given)	680
COc1ccc(-c2nnc(CC(=O)N3CCCC3)o2)cc1	677
COC(=O)C1=CN(c2cccc(C#N)c2)c2ccccc2S1(=O)=O	754
Cc1ccc(NC(=O)CN2CCc3[nH]c4c(C)ccc(F)c4c(=O)c3C2)cc1F	638
CCc1nnc(-c2cc(NC(=O)C3CCN(C(C)=O)CC3)c(C)s2)o1	697
O=C(Nc1cc(C(F)(F)F)cc(C(F)(F)F)c1)Nc1c(Br)cc(Br)cc1-c1nn[nH]n1	1130
CCC1CN1P(=O)(Oc1ccc(Cl)cc1)N1CC1CC (stereo not given)	980
CCNC(=O)C1CCCN(S(=O)(=O)c2cc(OC)ccc2OC)C1 (stereo not given)	699
COC(=O)c1cc(-c2cccc(N)c2)nc2ccccc12	749
CCCS(=O)(=O)N1CC(=O)N(c2cccc(Cl)c2C)C(C)(C(=O)NC2CCCC2)C1 (stereo not given)	946
CCC1Oc2ccc(S(=O)(=O)N3CCC(C(=O)NCc4ccccc4C)CC3)cc2NC1=O (stereo not given)	872
COc1ccc(-c2nnc(-c3ccc(C)c(S(=O)(=O)NC(C)(C)CO)c3)o2)cc1OC	749
O=C(c1ccc([N+](=O)[O-])o1)N1CCN(C(=O)C2CC2c2cccs2)CC1 (stereo not given)	752
O=C(NCc1ccc(F)cc1F)C1CCCN(c2nc3ccsc3c(=O)n2-c2ccc(F)cc2)C1 (stereo not given)	885
COc1ccc(-c2c(C)nn3c(N4CCN(c5ccccn5)CC4)cc(C)nc23)cc1OC	600
COc1ccccc1NC(=O)Cn1nc2c3sc(N(C)C)nc3ncn2c1=O	690
COCCNC(=O)c1nn(-c2ccc(Cl)cc2)nc1CO	792
Cc1cc(C)n(-c2ccnc(N3CCC(C(=O)NCCc4ccccc4)CC3)n2)n1	839
